Patent publication US20220049283A1, “Method of detecting SARS-CoV-2 cleavage targeted proprotein convertase and facilitated protease activity” (priority 2020, published 2022)

Test system: SARS-CoV-2 specific substrate (S1/S2 boundary peptide)
Format: biochemical
Conditions: substrate 10 ng/well, 25 min incubation, OD 450 nm, FIG. 4

trypsin
lowest amount of enzyme from which cleavage activity can be detected: 10 ng
